Measurements reported in US20100189707A1, “Stable Enzymatic Peracid Generating Systems” (priority 2007, published 2010).

Experiments:
S54V-MsAcT = assay: Enzymatic generation of PAA by S54V variant (ABTS assay); type: biochemical, M. smegmatis; conditions: for relative conversion rate to PAA for the three ester substrates: with S54V-MsAcT, same method as for PGDA
Procedure: In these experiments, methods known in the art were used to determine the concentration of PAA (See e.g., Pinkernell et al., Analyst, 122:567-571 [1997]). In this ABTS assay, 100 μl of the solution to be analyzed was added to 1 ml of 125 mM potassium citrate buffer, pH 5.0, containing 1.0 mM 3-ethylbenzthiazoline-6-sulfonic acid (ABTS) and 50 uM KI, and allowed to incubate at RT for 3 minutes. The absorbance was measured at 420 nm in a HP 8452A Diode Array Spectrophotomer and compared to a standard curve prepared using authentic standard. The enzymatic reactions to form PAA were initiated with addition of enzyme and conducted at RT. Aliquots were withdrawn from the reactions at the indicated times and analyzed for PAA concentration. The sodium percarbonate used in these experiments was obtained from Kemira and the hydrogen peroxide was obtained from EM Science.
A solution of 39 mM sodium percarbonate (sodium carbonate peroxyhydrate, Technical grade 85%, yielding 100 mM effective H2O2; Kemira) was prepared in 320 mM KPO4 pH 7.1. […] To compare the enzymatic production of PAA from prepared H2O2 (32 wt %, Aldrich) or H2O2 formed from percarbonate under identical pH conditions, two reactions were prepared. One reaction contained 100 mM H2O2 in 320 mM KPO4, pH 7.6, 100 mM 1,2-propylene glycol diacetate (Aldrich), and 2 ppm variant S54V. The absolute concentration of H2O2 was assumed from the value stated on the label and not confirmed by analysis. The second reaction contained 39 mM sodium percarbonate in 320 mM KPO4, pH 7.1, 100 mM 1,2-propylene glycol diacetate, and 2 ppm S54V. The reactions were initiated by the addition of the enzyme. Samples were withdrawn at the times indicated and the concentration of PAA determined as described in Example 1.
In order to study the use of different propyl alcohol acetate ester substrates, the generation of PAA was carried out using the same general method described above for PGDA, but using either propyl acetate or triacetin as the ester substrate. […]
In this Example, experiments to assess the amount of peracetic acid produced from glucose and propyleneglycol diacetate are described. […] Further samples were withdrawn at the times indicated in FIG. 2, and the concentration of PAA determined as described above. No PAA was detected before the addition of enzyme and approximately 9.5 mM PAA was produced from the 20 mM 1,2-propylene glycol diacetate and the H2O2 produced from the glucose/glucose oxidase reaction.
In these experiments, three reactions were prepared, consisting of 320 mM KPO4 pH 7.1, 100 mM 1,2-propylene glycol diacetate (Aldrich), and 100 mM sodium percarbonate. […] Samples were withdrawn at the times indicated in the Figure, and the concentration of PAA determined as described above.

B. subtilis spores [1] = assay: MsAcT system generated PAA killing of B. subtilis spores in buffer or detergent; type: cell-based; conditions: single reaction components in 400 mM KPO4 pH 7.1: 2 ppm S54V variant, 39 mM percarbonate, 100 mM PGDA
Procedure: In this experiment, sodium percarbonate was used as the source of H2O2. The final solution contained: 100 mM 1,2-propylene glycol diacetate, 2 ppm S54V variant, 39 mM sodium percarbonate (Technical grade 85%; yielding 100 mM effective H2O2) in 320 mM KPO4 pH 7.1 in a total volume of 800 μl. This mix (yield 40 mM PAA) was serially diluted to give additional mixes that yielded 4.9, 9.9 and 20.5 mM PAA. A mix with only 400 mM KPO4 pH 7.1 was used to determine total spore counts in the absence of PAA. The mixes were allowed to incubate at room temperature for 3 min. A volume of 180 μl of each of the mixes was then dispensed into duplicate wells of a round-bottomed 96-well plate (Costar) that contained 20 μl of the spore suspension used in Example 1, to yield a total volume of 200 μl in each well. The liquid was gently pipetted 4-5 times to ensure mixing of the components. The mixes were incubated with the spores for a further 15 or 30 minutes at room temperature. At the 15 and 30 minute time points, 20 μl were removed from each of the wells, added to wells in a fresh 96-well plate and serially diluted in LB to 10^−7 in a total volume of 100 μl. A volume of 5 μl from each dilution of each spore mixture was spotted onto an LA plate, allowed to dry and then incubated overnight at 37° C. Also at the 15 and 30 min time points, an appropriate volume was removed from each well and diluted sufficiently in dH2O to yield a measurable amount of PAA using the ABTS assay on scale with a standard, as described in Example 1. The results of the spore killing are presented as an average of the duplicates.
The experiment was repeated exactly as described except that a 1:500 dilution of Purex in 320 mM KPO4 pH 7.1, was used in place of the buffer. The results are presented in Table 3 (average of duplicates). Controls included various reaction components in 400 mM KPO4 pH 7.1 buffer: 2 ppm S54V variant, 2 ppm S54V variant with 39 mM percarbonate, 100 mM 1,2-propylene glycol diacetate, 100 mM 1,2-propylene glycol diacetate with 39 mM sodium percarbonate, 39 mM sodium percarbonate. […]

B. subtilis spores [2] = assay: Killing of B. subtilis spores by PAA; type: cell-based; conditions: 15 min RT
Procedure: In this Example, experiments conducted to determine the killing curve of peracetic acid (PAA) and PAA in conjunction with detergent (commercially available PUREX® [Dial] was used in this Example) for B. subtilis spores. In these experiments, the B. subtilis spores were prepared as known in the art (See e.g., Siccardi et al., J. Bacteriol., 121:13-19 [1975]). Assays were carried out in duplicate in 96-well, round bottomed microtiter plates (Costar) with peracetic acid (32 wt % in acetic acid; Aldrich). The PAA was serially diluted in either 50 mM KPO4 buffer, pH 7.1 (“Buffer”), or in a 1:500 dilution of Purex (original formula; Dial) in the same buffer (“Buffer+Det”) in a total volume of 50 μl. The amount of PAA added to the assay was 0, 0.4, 4 or 40 mM. A volume of 5 μl of the spore suspension, containing 10^9-10^10 spores, was then added to each well and the assay incubated for 15 min at RT. Ice cold LB (150 μl) (See e.g., Sambrook et al., “Molecular Cloning: A Laboratory Manual”, Second Edition (Cold Spring Harbor), [1989]) was then added to each well, mixed, and 100 μl transferred to a fresh 96-well plate. Serial dilutions of each solution were made (in a total volume of 100 μl/well). A volume of 5 μl of each dilution was spotted onto LA plates (Sambrook et al., supra), and incubated at 37° C. for 17-24 h. Colonies were counted and the % spore killing was determined relative to the respective controls (buffer alone or buffer+detergent, without peracid). The results are presented in Table 1, as an average of duplicates from one experiment. However, the experiment was done twice in duplicate with similar results.

Question: How did the “relative conversion rate to PAA for the three ester substrates” value (S54V-MsAcT) turn out when `CCCOC(C)=O` [propyl acetate] was run?
Answer: PGDA >triacetin >propyl acetate

Question: With `CC(=O)OCC(C)OC(C)=O` (stereo not shown) [PGDA, 1,2-propylene glycol diacetate] as the molecule, how does the “relative conversion rate to PAA for the three ester substrates” value (S54V-MsAcT) read?
Answer: PGDA >triacetin >propyl acetate

Question: What about the “spores/ml after a 30 min incubation” value (B. subtilis spores [1]) of the same molecule?
Answer: 5×10^9 spores/ml

Question: Which “spores/ml after a 30 min incubation” value (B. subtilis spores [1]) does the source give for `O=C([O-])[O-].O=C([O-])[O-].OO.OO.OO.[Na+].[Na+].[Na+].[Na+]` [sodium percarbonate] here?
Answer: 1×10^9 spores/ml

Question: With `CC(=O)OO` [PAA, peracetic acid] as the molecule, how does the “% Spore Killing” value (B. subtilis spores [2]; Buffer + Detergent, 0.4 mM PAA) read?
Answer: 0.05%

Question: What about the Spores/ml (B. subtilis spores [2]; Buffer + Detergent, 0.4 mM PAA) of the same molecule?
Answer: 1.7 × 10^9 Spores/ml

Question: What about the “% Spore Killing” value (B. subtilis spores [2]; Buffer + Detergent, 4 mM PAA) of the same molecule?
Answer: 86.4%

Question: And the Spores/ml (B. subtilis spores [2]; Buffer + Detergent, 4 mM PAA)?
Answer: 2.4 × 10^8 Spores/ml

Question: What about the “% Spore Killing” value (B. subtilis spores [2]; Buffer + Detergent, 40 mM PAA) of the same molecule?
Answer: 100%

Question: And the Spores/ml (B. subtilis spores [2]; Buffer + Detergent, 40 mM PAA)?
Answer: 0 Spores/ml

Question: And the “% Spore Killing” value (B. subtilis spores [2]; Buffer, 0.4 mM PAA)?
Answer: 86.4%

Question: And the Spores/ml (B. subtilis spores [2]; Buffer, 0.4 mM PAA)?
Answer: 2.4 × 10^8 Spores/ml

Question: And the “% Spore Killing” value (B. subtilis spores [2]; Buffer, 4 mM PAA)?
Answer: 90%

Question: And the Spores/ml (B. subtilis spores [2]; Buffer, 4 mM PAA)?
Answer: 1.6 × 10^8 Spores/ml

Question: What about the “% Spore Killing” value (B. subtilis spores [2]; Buffer, 40 mM PAA) of the same molecule?
Answer: 100%

Question: And the Spores/ml (B. subtilis spores [2]; Buffer, 40 mM PAA)?
Answer: 0 Spores/ml

B1: S54V variant: M. smegmatis acyl transferase variant comprising the S54V substitution (protein)
chain: MAKRILCFGDSLTWGWVPVEDGAPTERFAPDVRWTGVLAQQLGADFEVIEEGLVARTTNIDDPTDPRLNGASYLPSCLATHLPLDLVIIMLGTNDTKAYFRRTPLDIALGMSVLVTQVLTSAGGVGTTYPAPKVLVVSPPPLAPMPHPWFQLIFEGGEQKTTELARVYSALASFMKVPFFDAGSVISTDGVDGIHFTEANNRDLGVALAEQVRSLL
Question: How did the PAA produced (S54V-MsAcT; 20 mM 1,2-propylene glycol diacetate, H2O2 from glucose/glucose oxidase, 2 ppm S54V variant, RT) turn out when B1 was run?
Answer: approximately 9.5 mM

Question: And the “temperature up to which the enzyme system is functional” value (S54V-MsAcT; 2 ppm S54V variant, 100 mM PGDA, 100 mM sodium percarbonate, 21, 40, 60° C.)?
Answer: ≥ 60 °C

Question: What about the “spores/ml after a 30 min incubation” value (B. subtilis spores [1]) of the same molecule?
Answer: 5×10^9 spores/ml
